# From patent publication US20120009280A1, “METHOD OF REDUCING THE RATE OF DEGRADATION OF A BIOLOGICAL MATERIAL” (Bio-Energy Ingredients Limited, priority 2009, published 2012)
# System: total micro-organism
# Assay: Total microbial (plate) count of spent brewer's / wet distiller's grains stored at ambient temperature
# Type: cell-based
# Parameters: total microbial count: unit: cfu/gram
# Details: for preservation effect period: Example 18; for total microbial count: powder 10% (w/w); for preservation time with total microbial counts <10 cfu/g / preservation time with total microbial counts <100 cfu/g / preservation time with total microbial counts <1000 cfu/g: distiller's grains not de-watered, Examples 16-18
# Source text: Samples of spent brewer's grains were drawn from the discharge line of a brewery in South Africa. The samples, packed in dry ice in a cold box, were transported over a distance of approximately 40 kilometres to a laboratory. At the laboratory, the samples were thoroughly mixed and initially split into a first portion (Portion 1) and a second portion (Portion 2). The second portion was about twice the size of the first. Portion 1 was left untreated. Material produced from Portion 1 and Portion 2 is designated below using the code “AR” (as received).
# Portion 2 was placed on a clean, standard, laboratory screen deck with 1.4 mm apertures supported from below. As much water as possible was manually squeezed out with a clean flat plastic disc and the sample was then manually remixed after the squeezing. The squeezed material was then split into a third portion (Portion 3) and a fourth portion (Portion 4) of approximately the same size. Material produced from Portion 3 and Portion 4 is designated below using the code “SO” (squeezed).
# Portion 4 was added to a high speed kitchen food-shredder and shredded for about two minutes. The shredded material was then returned to the 1.4 mm aperture screen and squeezed again, as described above, and manually remixed again after the second squeezing to produce a shredded and squeezed portion (Portion 5). Material produced from Portion 5 is designated below using the code “SH” (shredded).
# Samples of Portion 1 (“AR”), Portion 3 (“SO”) and Portion 5 (“SH”) were then delivered to a microbiological testing facility about 15 kilometres from the treatment laboratory. Each was tested for initial total microbial, yeast and mould counts, respectively.
# Separate untreated samples were similarly stored under insect-proof screens at ambient temperature for seven days (as shown in Tables 1 and 2). During the trial period the ambient temperature ranged from 11 to 33 degrees C.
# After exposure to the environment for seven days, all of the samples were tested at a South African National Accreditation System (SANAS) approved microbiological testing facility. Each was tested for total micro-organism, yeast and mould counts to determine the affect of the various treatments.
# Samples of spent brewer's grains were drawn from the discharge line of a brewery in South Africa.
# At the laboratory, the samples were thoroughly mixed and initially split into a first portion (Portion 1) and a second portion (Portion 2). Portion 1 was left untreated. A sample of Portion 1, was delivered immediately to a microbiological testing facility about 15 kilometres away from the treatment laboratory and was tested for initial total microbial, yeast and mould counts, respectively.
# Samples from Portion 2 were subjected to treatment with varying amounts of a powdered, commercially-available calcium oxide containing approximately 94% calcium oxide (CaO) as shown in Table 32. The treatments varied from 2.5 to 10% (w/w) calcium oxide addition. The samples were stored in batches (according to the calcium oxide treatment) under insect-proof screens at ambient temperature for fifty six days. […] During the trial period the ambient temperature ranged from 10 to 30 degrees C. As this period was the southern hemisphere spring/early summer, the humidity as well as ambient temperatures varied widely.
# Samples from each treatment were drawn every seven days. No further calcium oxide treatment or agitation took place after the initial mix. In each case the entire sample was isolated and delivered to the microbiological testing facility.
# (§1) In this trial the same source of wet distiller's grains (again with now partial water removal prior to treatment) was treated.
# as §1
# [1] = dose 10% w/w, partially de-watered wet distiller's grains, Example 8
smiles,measurement,setting,value
[Ca+2].[OH-].[OH-] [(CaOH)2 powder],Total plate count,"dose 3.3% (w/w), week 0",60 cfu/gram
same,Total plate count,"dose 3.3% (w/w), week 1",12100 cfu/gram
same,Total plate count,"dose 3.3% (w/w), week 4",1750 cfu/gram
same,Total plate count,"dose 3.3% (w/w), week 5",20 cfu/gram
same,Total plate count,"dose 3.3% (w/w), week 6",<10 cfu/gram
same,Total plate count,"dose 3.3% (w/w), week 7",101000 cfu/gram
same,Total plate count,"dose 3.3% (w/w), week 8",3.20E+06 cfu/gram
same,Total plate count,"dose 6.6% (w/w), week 0",70 cfu/gram
same,Total plate count,"dose 6.6% (w/w), week 1",50 cfu/gram
same,Total plate count,"dose 6.6% (w/w), week 2",160 cfu/gram
same,Total plate count,"dose 6.6% (w/w), week 3",1550 cfu/gram
same,Total plate count,"dose 6.6% (w/w), week 4",290 cfu/gram
same,Total plate count,"dose 6.6% (w/w), week 5",<10 cfu/gram
same,Total plate count,"dose 6.6% (w/w), week 6",<10 cfu/gram
same,Total plate count,"dose 6.6% (w/w), week 7",5000 cfu/gram
same,Total plate count,"dose 6.6% (w/w), week 8",960000 cfu/gram
same,Total plate count,"dose 6.6% (w/w), week 9",1.24E+06 cfu/gram
[Ca+2].[O-]CC(O)CO.[O-]CC(O)CO [Ca-DGO granules],Total plate count,"dose 10% (w/w), week 0",80 cfu/gram
same,Total plate count,"dose 10% (w/w), week 1",510 cfu/gram
same,Total plate count,"dose 10% (w/w), week 2",3500 cfu/gram
same,Total plate count,"dose 10% (w/w), week 4",30 cfu/gram
same,Total plate count,"dose 10% (w/w), week 6",5400 cfu/gram
same,Total plate count,"dose 10% (w/w), week 8",410000 cfu/gram
same,Total plate count,"dose 10% (w/w), week 9",480000 cfu/gram
same,Total plate count,"dose 15% (w/w), week 0",180 cfu/gram
same,Total plate count,"dose 15% (w/w), week 1",150 cfu/gram
same,Total plate count,"dose 15% (w/w), week 4",70 cfu/gram
same,Total plate count,"dose 15% (w/w), week 5",650 cfu/gram
same,Total plate count,"dose 15% (w/w), week 6",120 cfu/gram
same,Total plate count,"dose 15% (w/w), week 7",700 cfu/gram
same,Total plate count,"dose 15% (w/w), week 8",270 cfu/gram
same,Total plate count,"dose 15% (w/w), week 9",150 cfu/gram
[Ca+2].[O-2] [CaO powder],Total plate count,"dose 5% (w/w), week 0",640 cfu/gram
same,Total plate count,"dose 5% (w/w), week 1",1800 cfu/gram
same,Total plate count,"dose 5% (w/w), week 2",280 cfu/gram
same,Total plate count,"dose 5% (w/w), week 3",210 cfu/gram
same,Total plate count,"dose 5% (w/w), week 4",<10 cfu/gram
same,Total plate count,"dose 5% (w/w), week 6",40 cfu/gram
same,Total plate count,"dose 5% (w/w), week 7",900 cfu/gram
same,Total plate count,"dose 5% (w/w), week 8",120 cfu/gram
same,Total plate count,"dose 5% (w/w), week 9",20 cfu/gram
same,Total plate count,"dose 10% (w/w), week 0",100 cfu/gram
same,Total plate count,"dose 10% (w/w), week 1",310 cfu/gram
same,Total plate count,"dose 10% (w/w), week 2",150 cfu/gram
same,Total plate count,"dose 10% (w/w), week 3",40 cfu/gram
same,Total plate count,"dose 10% (w/w), week 4",20 cfu/gram
same,Total plate count,"dose 10% (w/w), week 6",<10 cfu/gram
same,Total plate count,"dose 10% (w/w), week 7",300 cfu/gram
same,Total plate count,"dose 10% (w/w), week 8",80 cfu/gram
same,Total plate count,"dose 10% (w/w), week 9",<10 cfu/gram
same,minimum preservation time with total microbial counts <60 cfu/g,[1],2 weeks
same,minimum preservation time with total microbial counts <1000 cfu/g,[1],≧1 year
[Ca+2].[O-]CC(O)CO.[O-]CC(O)CO [calcium diglyceroxide],Total plate count,"10% Ca-DGO (w/w) granules, week 1",11000 cfu/gram
same,Total plate count,"10% Ca-DGO (w/w) granules, week 2",<10 cfu/gram
same,Total plate count,"10% Ca-DGO (w/w) granules, week 3",540 cfu/gram
same,Total plate count,"10% Ca-DGO (w/w) granules, week 4",60 cfu/gram
same,Total plate count,"10% Ca-DGO (w/w) granules, week 5",650 cfu/gram
same,Total plate count,"10% Ca-DGO (w/w) powder, week 1",610 cfu/gram
same,Total plate count,"10% Ca-DGO (w/w) powder, week 2",<10 cfu/gram
same,Total plate count,"10% Ca-DGO (w/w) powder, week 3",580 cfu/gram
same,Total plate count,"10% Ca-DGO (w/w) powder, week 4",5000 cfu/gram
same,Total plate count,"10% Ca-DGO (w/w) powder, week 5",36000 cfu/gram
same,Total plate count,"20% Ca-DGO (w/w) powder, week 1",80 cfu/gram
same,Total plate count,"20% Ca-DGO (w/w) powder, week 2",310 cfu/gram
same,Total plate count,"20% Ca-DGO (w/w) powder, week 3",140 cfu/gram
same,Total plate count,"20% Ca-DGO (w/w) powder, week 4",40 cfu/gram
same,Total plate count,"20% Ca-DGO (w/w) powder, week 5",10 cfu/gram
same,Total plate count,"40% Ca-DGO (w/w) powder, week 1",40 cfu/gram
same,Total plate count,"40% Ca-DGO (w/w) powder, week 2",450 cfu/gram
same,Total plate count,"40% Ca-DGO (w/w) powder, week 3",103 cfu/gram
same,Total plate count,"40% Ca-DGO (w/w) powder, week 4",10 cfu/gram
same,Total plate count,"40% Ca-DGO (w/w) powder, week 5",10 cfu/gram
same,preservation effect period,granule form 15% (w/w),9 week
same,total microbial count,3 week time point,580
same,total microbial count,week 4,"5,000"
same,total microbial count,week 5,"36,000"
same,preservation effect period,powder form 15% (w/w),9 week
[Ca+2].[OH-].[OH-] [calcium hydroxide],preservation time with total microbial counts <10 cfu/g,dose 3.3% w/w,≧6 weeks
same,preservation time with total microbial counts <100 cfu/g,dose 3.3% w/w,≧6 weeks
same,preservation time with total microbial counts <1000 cfu/g,dose 3.3% w/w,≧6 weeks
same,preservation time with total microbial counts <10 cfu/g,dose 6.6% w/w,≧6 weeks
same,preservation time with total microbial counts <100 cfu/g,dose 6.6% w/w,≧6 weeks
same,preservation time with total microbial counts <1000 cfu/g,dose 6.6% w/w,≧6 weeks
